The results in this text go back to PMC10582583, “The novel cyclophilin inhibitor C105SR reduces hepatic ischaemia–reperfusion injury via mitoprotection” (JHEP Reports, 2023).

The target of this assay is CypD (Homo sapiens, UniProt P30405). As to the kind of experiment: CypD PPIase activity, chymotrypsin-coupled assay. Particulars: Table 1. It counts as biochemical.
CypD, sequence (P30405 30-207): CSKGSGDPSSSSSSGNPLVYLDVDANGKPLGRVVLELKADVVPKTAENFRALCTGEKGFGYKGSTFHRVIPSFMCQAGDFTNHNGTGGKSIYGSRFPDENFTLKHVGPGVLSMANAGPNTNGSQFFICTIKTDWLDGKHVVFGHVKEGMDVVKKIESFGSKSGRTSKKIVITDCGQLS

As a reminder, the IC50 is the point on the concentration scale where inhibition reaches its midpoint. Read a high IC50 as weaker potency in that assay. As to `CSc1ccccc1C1CCCN1C(=O)C(NC(=O)NN1Cc2ccc(N)cc2C1)c1ccccc1` (stereo not drawn) [Compound C185, 1-(5-aminoisoindolin-2-yl)-3-(2-(2-(2-(methylthio)phenyl)pyrrolidin-1-yl)-2-oxo-1-phenylethyl)urea], the IC50 was determined as 0.59 ± 0.19 µM.

The compound `CSc1ccccc1C1CCCN1C(=O)C(NC(=O)NCc1cccc2ccsc12)c1ccccc1` (stereo not drawn) [Compound C142, 1-(benzo[b]thiophen-7-ylmethyl)-3-(2-(2-(2-(methylthio)phenyl)pyrrolidin-1-yl)-2-oxo-1-phenylethyl)urea] returned an IC50 of 0.42 ± 0.1 µM. The value for `COc1ccc(Br)cc1C(NC(=O)NC(C)c1ccc(N)c(F)c1)C(=O)N1CCCC1c1ccccc1SC` (stereo not drawn) [Compound C123, 1-(1-(4-amino-3-fluorophenyl)ethyl)-3-(1-(5-bromo-2-methoxyphenyl)-2-(2-(2-(methylthio)phenyl)pyrrolidin-1-yl)-2-oxoethyl)urea] was 1.26 ± 0.37 µM; that for `CSc1ccccc1C1CCCN1C(=O)C(NC(=O)NC(C)c1ccc(N)c(F)c1)c1ccccc1` (stereo not drawn) [Compound C101, 1-(1-(4-amino-3-fluorophenyl)ethyl)-3-(2-(2-(2-(methylthio)phenyl)pyrrolidin-1-yl)-2-oxo-1-phenylethyl)urea] was 0.4 ± 0.19 µM; that for `CSc1ccccc1C1CCCN1C(=O)C(NC(=O)NCc1cccc2c1OCCO2)c1ccccc1` (stereo not drawn) [Compound C129, 1-((2,3-dihydrobenzo[b][1,4]dioxin-5-yl)methyl)-3-(2-(2-(2-(methylthio)phenyl)pyrrolidin-1-yl)-2-oxo-1-phenylethyl)urea] was 0.26 ± 0.07 µM.

In turn, `CSc1ccccc1C1CCCN1C(=O)C(NC(=O)NCC1CC2(CNC2)C1)c1ccccc1` (stereo not drawn) [Compound C119, 1-((2-azaspiro[3.3]heptan-6-yl)methyl)-3-(2-(2-(2-(methylthio)phenyl)pyrrolidin-1-yl)-2-oxo-1-phenylethyl)urea] showed an IC50 of 0.15 ± 0.03 µM.

With `COc1ccc(OC)c(C(NC(=O)NCc2cccc3[nH]ncc23)C(=O)N2CCCC2c2ccccc2SC)c1` (stereo not drawn) [Compound C171, 1-((1H-indazol-4-yl)methyl)-3-(1-(2,5-dimethoxyphenyl)-2-(2-(2-(methylthio)phenyl)pyrrolidin-1-yl)-2-oxoethyl)urea], 0.34 ± 0.13 µM corresponded to half-maximal inhibition (IC50). The value for `COc1ccc(OC)c(C(NC(=O)NCc2cccc3[nH]ccc23)C(=O)N2CCCC2c2ccccc2SC)c1` (stereo not drawn) [Compound C170, 1-((1H-indol-4-yl)methyl)-3-(1-(2,5-dimethoxyphenyl)-2-(2-(2-(methylthio)phenyl)pyrrolidin-1-yl)-2-oxoethyl)urea] was 1.05 ± 0.72 µM; that for `COc1cc(OC)c(C(NC(=O)NCc2ccc(N)cc2)C(=O)N2CCCC2c2cccc3ccsc23)cc1Br` (stereo not drawn) [Compound C112, 1-(4-aminobenzyl)-3-(2-(2-(benzo[b]thiophen-7-yl)pyrrolidin-1-yl)-1-(5-bromo-2,4-dimethoxyphenyl)-2-oxoethyl)urea] was 0.48 ± 0.04 µM. The value for `CSc1ccccc1C1CCCN1C(=O)C(NC(=O)NCc1ccc(N)cc1)C1CCCCC1` (stereo not drawn) [Compound C71, 1-(4-aminobenzyl)-3-(1-cyclohexyl-2-(2-(2-(methylthio)phenyl)pyrrolidin-1-yl)-2-oxoethyl)urea] was 0.79 ± 0.21 µM. The result for `CSc1ccccc1C1CCCN1C(=O)C(NC(=O)NCc1cccc2[nH]ccc12)c1ccccc1` (stereo not drawn) [Compound C172, 1-((1H-indol-4-yl)methyl)-3-(2-(2-(2-(methylthio)phenyl)pyrrolidin-1-yl)-2-oxo-1-phenylethyl)urea] reads 0.21 ± 0.07 µM; that for `CSc1ccccc1C1CCCN1C(=O)C(NC(=O)NCc1cccc2[nH]ncc12)c1ccccc1` (stereo not drawn) [Compound C178, 1-((1H-indazol-4-yl)methyl)-3-(2-(2-(2-(methylthio)phenyl)pyrrolidin-1-yl)-2-oxo-1-phenylethyl)urea], 0.4 ± 0.19 µM.
